In the test the test system is T1, primary mouse cortical neurons.
T1 construct: primary cortical neurons, DIV 10
As to the kind of experiment: cells. Also noted: Protection from NMDA-induced (30 uM, 10 min) neuronal death; Hoechst nuclear morphology by automated microscopy. Particulars: Cortical neurone, 20 h, read-out: % inhibition, inhibition of NMDA-induced cell death (protection score), 30 min pre-treatment. The method, boiled down: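 On DIV 10, primary mouse cortical neurons were given compound at 10 μM for 30 min at 37 °C, then 30 μM NMDA for 10 min, washed, and kept 20 h with compound. Dead cells were scored by nuclear morphology, and % protection was derived from survival relative to vehicle + NMDA and untreated controls.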

Structures are written as SMILES. Counter-ions that a name gives are not always drawn.

Experimental findings from publication PMC7489219 (Molecular Brain, 2020) are described below.

For the molecule `CC/C(=C(\c1ccccc1)c1ccc(OCCN(C)C)cc1)c1ccccc1` [Tamoxifen Citrate (Nolvadex)], the inhibition at 10 µM is -8.21%.
Under `C[C@@H](NCCc1ccc(O)cc1)[C@@H](O)c1ccc(O)cc1` (racemic) [Ritodrine hydrochloride (Yutopar)] stands 3.89%.
Under `Cc1ccnc2c1NC(=O)c1cccnc1N2C1CC1` [Nevirapine (Viramune)] stands 9.64%; under `CN(C)CC/C=C1/c2ccccc2COc2ccc(CC(=O)O)cc21` [Olopatadine hydrochloride (Opatanol)], -8.38%; under `COc1ccc([C@@H]2CC(=O)c3c(O)cc(O)cc3O2)cc1O` [Hesperetin], -3.04%.
In the case of `CN(C)CC/C=C1/c2ccccc2Sc2ccc(Cl)cc21` [Chlorprothixene], the inhibition at 10 µM was -2.97%.
Under `C[C@@H](CN1CC(=O)NC(=O)C1)N1CC(=O)NC(=O)C1` [Dexrazoxane Hydrochloride] stands -16.2%; under `C[C@@H]1O[C@@H](O[C@H]2[C@H](Oc3cc(O)c(C(=O)CCc4ccc(O)cc4)c(O)c3)O[C@H](CO)[C@@H](O)[C@@H]2O)[C@H](O)[C@H](O)[C@H]1O` [Naringin Dihydrochalcone (Naringin DC)], 7.97%; under `O=C(O)C[C@H](O)C[C@H](O)/C=C/c1c(C2CC2)nc2ccccc2c1-c1ccc(F)cc1` [Pitavastatin calcium (Livalo)], 17.7%.
Under `O=C1C=CC[C@@H]2[C@H]3CCCN4CCC[C@@H](CN12)[C@@H]34` [Sophocarpine] stands 0.911%; under `CC1(C)CC[C@]2(C(=O)O)CC[C@]3(C)C(=CC[C@@H]4[C@@]5(C)CC[C@H](O)C(C)(C)[C@@H]5CC[C@]43C)[C@@H]2C1` [Oleanolic Acid (Caryophyllin)], -2%.
Next, `CCC[C@@H]1C[C@@H](C(=O)N[C@@H]([C@H]2O[C@H](SC)[C@H](O)[C@@H](O)[C@H]2O)[C@@H](C)O)N(C)C1` [Lincomycin hydrochloride (Lincocin)]: -7.87%.
As to `COc1ccc2cc3[n+](cc2c1OC)CCc1cc2c(cc1-3)OCO2` [Berberine Hydrochloride], the inhibition at 10 µM is -2.08%.
As for `Nc1nc2[nH]cnc2c(=S)[nH]1` [Thioguanine], the inhibition at 10 µM was determined as 13%.
In the case of `Cc1cc2nc3c(=O)[nH]c(=O)nc-3n(C[C@H](O)[C@H](O)[C@H](O)CO)c2cc1C` [Riboflavin (Vitamin B2)], the inhibition at 10 µM was 1.7%.
Consider `Nc1ccn([C@H]2CC[C@@H](CO)O2)c(=O)n1` [Zalcitabine], for which the inhibition at 10 µM is 3.28%.
Next, `Cc1c(OCC(F)(F)F)ccnc1C[S+]([O-])c1nc2ccccc2[nH]1` (centres unmarked) [Lansoprazole]: -7.28%; `C=C[C@](C)(O)CC[C@@H]1[C@@]2(C)CCCC(C)(C)[C@@H]2CC[C@@]1(C)O` [Sclareol]: 23.8%; `CC1=C(/C=C/C(C)=C/C=C/C(C)=C\C(=O)O)C(C)(C)CCC1` [Isotretinoin]: -1.4%.
Next, `O=C(O)c1cc(O)c2c(c1)C(=O)c1cccc(O)c1C2=O` [Rhein (Monorhein)]: 5.39%.
On to `CC1COc2c(N3CCN(C)CC3)c(F)cc3c(=O)c(C(=O)O)cn1c23` (centres unmarked) [Ofloxacin (Floxin)], for which the inhibition at 10 µM is -0.567%.
In the case of `Nc1cccc2c1CN(C1CCC(=O)NC1=O)C2=O` (centres unmarked) [Lenalidomide], the inhibition at 10 µM was -2.36%.
Under `O=C1CCC[C@@H]2[C@H]3CCCN4CCC[C@@H](CN12)[C@@H]34` [Matrine ((+)-Matrine)] stands -4.08%; under `CC(C)C(=O)Oc1ccc(CO)cc1[C@H](CCN(C(C)C)C(C)C)c1ccccc1` [Fesoterodine fumarate (Toviaz)], -0.933%; under `CCC1=C[C@@H]2CN(C1)Cc1c([nH]c3ccccc13)[C@@](C(=O)OC)(c1cc3c(cc1OC)N(C)[C@H]1[C@@](O)(C(=O)OC)[C@H](OC(C)=O)[C@]4(CC)C=CCN5CC[C@]31[C@@H]54)C2` [Vinorelbine (Navelbine)], -1.98%.
Under `OCCN(CCO)c1nc(N2CCCCC2)c2nc(N(CCO)CCO)nc(N3CCCCC3)c2n1` [Dipyridamole (Persantine)] stands -3.58%; under `C[C@@H]1O[C@@H](OC[C@H]2O[C@@H](Oc3c(-c4ccc(OCCO)c(OCCO)c4)oc4cc(OCCO)cc(O)c4c3=O)[C@H](O)[C@@H](O)[C@@H]2O)[C@H](O)[C@H](O)[C@H]1O` [Troxerutin], 23.8%.
Under `Nc1nc(=O)n([C@@H]2CS[C@H](CO)O2)cc1F` [Emtricitabine (Emtriva)] stands 14.4%; under `CC1=C(/C=C/C(C)=C/C=C/C(C)=C/C(=O)O)C(C)(C)CCC1` [Tretinoin (Aberela)], -38.4%.
`Cc1ccc(NC(=O)c2ccc(CN3CCN(C)CC3)cc2)cc1Nc1nc(-c2cccnc2)cs1` [Masitinib (AB1010)]: the inhibition at 10 µM was -5.13%.
Next, `COc1ccc(-c2coc3cc(O)ccc3c2=O)cc1` [Formononetin (Formononetol)]: -0.533%; `O=c1c2ccccc2oc2ccccc12` [Xanthone (Genicide)]: 7.85%.
`CN(C)C(=O)Oc1ccc[n+](C)c1` [Pyridostigmine Bromide (Mestinon)]: the inhibition at 10 µM amounted to 35.3%.
Turning to `NC(=O)c1ncn([C@@H]2O[C@H](CO)[C@@H](O)[C@H]2O)n1` [Ribavirin (Copegus)], the inhibition at 10 µM came to 12.3%.
Under `CCN(CC)CC#CCOC(=O)C(O)(c1ccccc1)C1CCCCC1` (centres unmarked) [Oxybutynin (Ditropan)] stands 37.3%.
Under `CO[C@H]1C[C@@H]2CC[C@@H](C)[C@@](O)(O2)C(=O)C(=O)N2CCCC[C@H]2C(=O)O[C@H]([C@H](C)C[C@@H]2CC[C@@H](O)[C@H](OC)C2)CC(=O)[C@H](C)/C=C(\C)[C@@H](O)[C@@H](OC)C(=O)[C@H](C)C[C@H](C)/C=C/C=C/C=C/1C` [Rapamycin (Sirolimus)] stands -1.51%.
Next, `Oc1ncnc2[nH]ncc12` [Allopurinol (Zyloprim)]: 19.8%.
Regarding `O=c1[nH]cc(F)c(=O)[nH]1` [Adrucil (Fluorouracil)], the inhibition at 10 µM was -16.3%.
Next, `COc1cc(CCC(C)=O)ccc1O` [Vanillylacetone]: 7.76%; `COc1cc2/c(=N/c3ccc(Br)cc3F)nc[nH]c2cc1OCC1CCN(C)CC1` [Vandetanib (Zactima)]: -8.86%.
Next, `COc1ccc([C@@H]2CC(=O)c3c(O)cc(O[C@@H]4O[C@H](CO[C@@H]5O[C@@H](C)[C@H](O)[C@@H](O)[C@H]5O)[C@@H](O)[C@H](O)[C@H]4O)cc3O2)cc1O` [Hesperidin]: -3.55%.
Next, `O=c1[nH]cnc2c1ncn2[C@@H]1O[C@H](CO)[C@@H](O)[C@H]1O` [Inosine]: 19.8%.
For `O=C(O)COCCN1CCN(C(c2ccccc2)c2ccc(Cl)cc2)CC1` (centres unmarked) [Cetirizine Dihydrochloride], the inhibition at 10 µM is -10.5%.
Next, `CNC(=C[N+](=O)[O-])NCCSCc1csc(CN(C)C)n1` [Nizatidine]: -2.67%; `Cn1c(=O)c2c(ncn2CC(O)CO)n(C)c1=O` (centres unmarked) [Dyphylline (Dilor)]: -0.361%; `Cc1[nH]c(=O)c(C#N)cc1-c1ccncc1` [Milrinone (Primacor)]: -10.4%.
Under `CC(C)Cn1cnc2c(N)nc3ccccc3c21` [Imiquimod] stands -8.7%; under `C[C@H]1COc2c(N3CCN(C)CC3)c(F)cc3c(=O)c(C(=O)O)cn1c23` [Levofloxacin (Levaquin)], -4.92%.
For the molecule `Cc1cc2c(C(C)C)c(O)c(O)c(C=O)c2c(O)c1-c1c(C)cc2c(C(C)C)c(O)c(O)c(C=O)c2c1O` [Gossypol], the inhibition at 10 µM is -2.2%.
Next, `CCc1cccc2c3c([nH]c12)C(CC)(CC(=O)O)OCC3` (centres unmarked) [Etodolac (Lodine)]: 9.68%.
In the case of `COC(=O)[C@H]1[C@H]2C[C@@H]3c4[nH]c5cc(OC)ccc5c4CCN3C[C@H]2C[C@@H](OC(=O)c2cc(OC)c(OC)c(OC)c2)[C@@H]1OC` [Reserpine], the inhibition at 10 µM was 24%.
Consider `O=c1c(O)c(-c2ccc(O)cc2O)oc2cc(O)cc(O)c12` [Morin hydrate (Aurantica)], for which the inhibition at 10 µM was -2.71%.
With `CCOC(=O)c1ccc(C#Cc2ccc3c(c2)C(C)(C)CCS3)nc1` [Tazarotene (Avage)], the inhibition at 10 µM was 38.1%.
As for `CNCCC[C@]12CC[C@H](c3ccccc31)c1ccccc12` [Maprotiline hydrochloride], the inhibition at 10 µM came to 0.000867%.
Turning to `C=CC1=C(C(=O)O)N2C(=O)[C@@H](NC(=O)/C(=N\O)c3csc(N)n3)[C@H]2SC1` [Cefdinir (Omnicef)], the inhibition at 10 µM was 44.5%.
For the molecule `O=c1n(CCCN2CCN(c3cccc(Cl)c3)CC2)nc2ccccn12` [Trazodone hydrochloride (Desyrel)], the inhibition at 10 µM was -1.4%.
`Cc1oncc1C(=O)Nc1ccc(C(F)(F)F)cc1` [Leflunomide]: the inhibition at 10 µM was 15.6%.
`CC(=O)[C@H]1CC[C@H]2[C@@H]3CCC4=CC(=O)CC[C@]4(C)[C@H]3CC[C@]12C` [Progesterone (Prometrium)]: the inhibition at 10 µM was determined as 7.11%.
Next, `CCOC(=O)O[C@]1(C(=O)OCCl)CC[C@H]2[C@@H]3CCC4=CC(=O)C=C[C@]4(C)[C@H]3[C@@H](O)C[C@@]21C` [Loteprednol Etabonate]: 30.7%; `O=C1c2c(O)cccc2[C@H]([C@@H]2O[C@H](CO)[C@@H](O)[C@H](O)[C@H]2O)c2cc(CO)cc(O)c21` [Aloin (Barbaloin)]: 0.91%.
`Clc1cccc(Cl)c1NC1=NCCN1` [Clonidine hydrochloride (Catapres)]: the inhibition at 10 µM was -1.98%.
Under `CCCSc1ccc2[nH]c(NC(=O)OC)nc2c1` [Albendazole (Albenza)] stands 28.3%.
